The text below walks through data of ChEMBL document CHEMBL1811856 (J Med Chem, 2011).

As usually defined, the Ki is a dissociation constant, usually derived from enzyme kinetics or from competition with a known ligand. A low value points to tighter binding.

The nature of test [1]: Displacement of [3H]SCH-23390 from dopamine D1 like receptor in porcine striatal membranes after 30 mins by scintillation counting. It is filed as cell membranes, Sus scrofa, Striatum, Membrane. For orientation: In a radioligand displacement assay an active substance lowers the binding of a labelled ligand.
A short description of test [2]: Displacement of [3H]spiperone from dopamine D2 like receptor in porcine striatal membranes after 30 mins by scintillation counting. In kind it is cell membranes, Sus scrofa, Striatum, Membrane.
Another test is filed under the species Sus scrofa. The experiment in a line: Selectivity ratio Ki for dopamine D2 like receptor in porcine striatal membranes to Ki for dopamine D1 like receptor in porcine striatal membranes. In kind it is cell membranes.

As for `C[C@@H]1Cc2cc(O)c(O)cc2[C@H]2c3ccccc3CN[C@@H]21`, the values for the Ki in test [1] and in test [2] were more than 10 µM and 7.38 µM, respectively. The Ratio Ki in the test listed under Sus scrofa was less than 0.74.
With `C[C@@H]1C[C@H]2NCc3ccccc3[C@@H]2c2cc(O)c(O)cc21` (racemic), the inhibition constant (Ki) in test [1] stood at 0.27 µM; in test [2], 5.53 µM. Also, the Ratio Ki in the test listed under Sus scrofa came out at 20.
`C[C@H]1C[C@H]2NCc3ccccc3[C@@H]2c2cc(O)c(O)cc21` (racemic): the Ki is 0.92 µM in test [1] and 3.63 µM in test [2]. In the test listed under Sus scrofa, the Ratio Ki came to 3.9.
Take `C[C@H]1Cc2cc(O)c(O)cc2[C@H]2c3ccccc3CN[C@@H]21` (racemic): the Ki in test [1] is 6.54 µM; in test [2], 8.67 µM. The Ratio Ki in the test filed under Sus scrofa was 1.3.
As to `Oc1cc2c(cc1O)[C@H]1c3ccccc3CN[C@@H]1CC2` (racemic) [DIHYDREXIDINE], in test [2], the Ki amounted to 0.24 µM.
